In patent publication US7659242B2, “Composition comprising protein material and compounds comprising non-oxidizable fatty acid entities” (Thia Medica AS, priority 2004, dated 2010):

How the values were obtained:
[1] = degradation time in vivo of ω-oxidation blocked analogue
From the text: ω-oxidation is believed to be the main pathway for degradation of the fatty acid entities as described with a block in the X position. Experiments were thus performed where R′ was changed to block ω-oxidation, by introducing a triple bond at the methyl end of the fatty acid analogue. […] This is important for the use of the fatty acid entities in pharmaceutical preparation, as it may potentiate the effects of the β-oxidizable fatty acid entities by further slowing down their breakdown.

[2] = tested on: mitochondrial β-oxidation in the liver; assay: activity of mitochondrial β-oxidation in the liver of fatty acid analogues; assay type: biochemical
From the text: Although all fatty acid anagoges with an odd positioning of the β-oxidation blocker X away from the carboxylic end block β-oxidation, the extent of their biological effect may be variable. This is due to the difference in biological degradation time of the various compounds. The inventors have done experiments to show the effect of moving X further from the carboxylic fatty acid end. In these experiments the activity (in nmol/min/mg/protein) of mitochondrial β-oxidation in the liver of fatty acid analogues was measured with sulphur in the 3, 5 and 7 positions relative to the carboxyl end. The activities were 0.81 for sulphur in the 3rd position, 0.61 for sulphur in the 5th position, 0.58 for sulphur in the 7th position, and 0.47 for palmitic acid, the non β-oxidation blocking control. […] However, as the decline is great for going from the 3rd to 5th position, but small going from the 5th to 7th position, it is reasonable to assume that this decline will continue to be less as one moves out the chain and thus that it will be very far out indeed before no effect (compared to the control) is seen at all.

| SMILES | degradation time in vivo [1] | activity of mitochondrial β-oxidation in the liver [2] [nmol/min/mg/protein] |
| --- | --- | --- |
| CC#CCCCCCCCCCCCSCC [3-thia-15-heptadecyn] | substantially increased degradation time in vivo | – |
| CCCCCCCCCCCCCCCC(=O)O [palmitic acid] | – | 0.47 |
